Laboratory results taken from patent EP0471612B1, “New steroids having an amide substituted group in the 11-beta position, their preparation, their use as medicines and pharmaceutical composition thereof” (ROUSSEL UCLAF, priority 1990, dated 1992).
Where two headings read alike, the source gives them in different places.

What was measured:
[1] = target: T1, récepteur estrogène de l'utérus de souris (Mus musculus, UniProt P19785); experiment: Relative binding affinity (ARL) for the estrogen receptor, mouse uterus cytosol, displacement of tritiated estradiol; conditions: ARL = 100 (CH)/(CX), estradiol = 100, head prints 0°C; for Récepteurs Oestrogène Temps d'incubation à 0°C 5H (affinité relative de liaison, ARL): incubation 5H (second time); for Récepteurs Oestrogène Temps d'incubation à 0°C 2H (affinité relative de liaison, ARL): incubation 2H
T1 construct: les utérus sont prélevés puis homogénéisés a 0°C; from tissue; host or cells: uterus of immature female mice (18-21 days), cytosol (105 000 g supernatant)
T1 sequence (P19785 1-599): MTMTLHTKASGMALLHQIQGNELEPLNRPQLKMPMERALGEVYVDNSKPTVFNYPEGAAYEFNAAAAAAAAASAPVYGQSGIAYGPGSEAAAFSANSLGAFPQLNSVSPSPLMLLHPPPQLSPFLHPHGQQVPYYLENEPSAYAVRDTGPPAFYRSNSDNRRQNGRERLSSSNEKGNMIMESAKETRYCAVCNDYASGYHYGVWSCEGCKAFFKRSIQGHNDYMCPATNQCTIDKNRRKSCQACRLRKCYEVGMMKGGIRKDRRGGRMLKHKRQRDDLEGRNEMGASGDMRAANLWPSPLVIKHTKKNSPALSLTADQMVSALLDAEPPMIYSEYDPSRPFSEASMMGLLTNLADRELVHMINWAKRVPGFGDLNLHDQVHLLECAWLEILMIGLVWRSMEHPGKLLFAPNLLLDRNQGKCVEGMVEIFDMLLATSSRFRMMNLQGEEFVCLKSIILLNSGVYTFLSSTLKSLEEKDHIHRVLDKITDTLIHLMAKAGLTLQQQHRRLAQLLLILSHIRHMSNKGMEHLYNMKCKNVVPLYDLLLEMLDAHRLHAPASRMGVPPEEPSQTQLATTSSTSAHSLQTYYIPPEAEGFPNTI
Procedure: Des souris femelles impubères âgées de 18 a 21 jours sont sacrifiées, les utérus sont prélevés puis homogénéisés a 0°C à l'aide d'un Potter teflon-verre dans une solution tamponnée TS (Tris 10 mM, saccharose 0,25 M, HCl pH 7,4 (1 g de tissu pour 25 ml de TS). L'homogénat est ensuite ultracentrifugé (105 000 g x 90 mn) à 0°C. Des aliquotes du surnageant ainsi obtenu, sont incubées a 0°C ou a 25°C pendant un temps (t) avec une concentration constante (T) d'estradiol tritié en présence de concentrations croissantes (0 - 1000.10^-9 M) soit d'estradiol froid, soit du produit froid a tester. La concentration d'estradiol tritié lié (B) est ensuite mesurée dans chaque incubat par la technique d'adsorption au charbon-dextran.
Le calcul de l'affinité relative de liaison (ARL) est identique pour tous les récepteurs.
On trace les 2 courbes suivantes : le pourcentage de l'hormone tritiée liée (B)/(T) [formula] en fonction du logarithme de la concentration de l'hormone de référence froide et (B)/(T) [formula] en fonction du logarithme de la concentration du produit froid testé.
On détermine la droite d'équation I50 = ((B)/(T)max +(B)/(T)min)/2. [formula] (B)/(T) [formula] max = Pourcentage de l'hormone tritiée liée pour une incubation de cette hormone tritiée à la concentration (T). (B)/(T) [formula] min = Pourcentage de l'hormone tritiée liée pour une incubation de cette hormone tritiée à la concentration (T) en présence d'un grand excès d'hormone froide (2500.10^-9M).
Les intersections de la droit I50 et des courbes permettent d'évaluer les concentrations de l'hormone de référence froide (CH) et du produit froid testé (CX) qui inhibent de 50 % la liaison de l'hormone tritiée sur le récepteur.
L'affinité relative de liaison (ARL) du produit testé est déterminée par l'équation ARL = 100((CH))/((CX)). [formula]

[2] = tested on: cellules tumorales mammaires MCF-7; experiment: Anti-proliferative activity on growth of MCF-7 mammary tumour cells (DNA assay with DABA); format: cell-based; conditions: Homo sapiens, MCF7, 144 h, read-out: CI50 (concentration qui inhibe de 50 % la croissance des cellules MCF7)
Procedure: Les lignées MCF-7 sont maintenues en culture en milieu SVF(1) à 37°C en atmosphère humide contenant 5 % CO2. Les cellules à subconfluence sont récoltées par trypsination (trypsine 0,05 %, EDTA 0,02 %) puis rincées par centrifugation douce. Un échantillon des cellules en suspension est compté sur cellule de Malassez.
Les cellules resuspendues dans le milieu SVF sont ensemencées à raison de 30.000 cellules par puits dans des plaques multipuits (24 puits de 2,5 cm^2). Vingt quatre heures après l'ensemencement (JO), le produit à tester est ajouté au milieu en solution éthanolique (concentration finale en éthanol : 0,1 %), à la concentration de 10^-12 à 10^-6M, les puits contrôles recevant la même concentration en éthanol. Les milieux sont renouvelés toutes les 48 heures. En fin d'expérience (J6), le milieu est aspiré et les cellules sont immédiatement fixées par 150 microlitres de méthanol afin de doser l'ADN.
L'activité anti-proliférative des produits est évaluée par leur capacité à inhiber l'augmentation d'ADN.
L'ADN est dosé par une méthode fluorimétrique utilisant le DABA (Acide 3,5 diaminobenzoïque) (2) : 150 microlitres de DABA sont ajoutés dans chaque puits; les plaques sont alors incubées 45 mn à 56°C, puis 2 ml d'HCl 1N sont ajoutés. La fluorescence est mesurée à l'aide d'un fluorimètre (longueur d'onde excitatrice : 408 nm, longueur d'onde d'émission : 510 nm).
La quantité d'ADN par puits est évaluée par rapport à une gamme étalon obtenue en traitant dans les mêmes conditions un standard d'ADN de thymus de veau.
La concentration en nm qui inhibe de 50 % la croissance des cellules MCF7 (CI50) a été déterminée de la manière indiquée ci-dessus : […]

[3] = MCF-7, product 10^-12 to 10^-6M, 6 days (J6), DNA measured

Compound | Récepteurs Oestrogène Temps d'incubation à 0°C 5H (affinité relative de liaison, ARL) [1] | IC50 [2, 3] | Récepteurs Oestrogène Temps d'incubation à 0°C 2H (affinité relative de liaison, ARL) [1] | Récepteurs Oestrogène Temps d'incubation à 0°C 5H (affinité relative de liaison, ARL) ([1]; listed as exemple 14) | IC50 [2]
CCCCN(C)C(=S)CCCCCCCOc1ccc([C@H]2C[C@]3(C)[C@@H](O)CC[C@H]3[C@@H]3CCc4cc(O)ccc4[C@H]32)cc1 [Exemple 2, N-butyl-8-(4-(3,17béta-dihydroxy-estra-1,3,5(10)-trien-11béta-yl)phénoxy)-N-méthyl-octanethioamide] | 16 | 0.035 nM | – | – | –
CN(CC(F)(F)C(F)(F)C(F)(F)F)C(=O)CCCCCCCOc1ccc([C@H]2C[C@]3(C)[C@@H](O)CC[C@H]3[C@@H]3CCc4cc(O)ccc4[C@H]32)cc1 [Exemple 5, 8-(4-(3,17béta-dihydroxy-estra-1,3,5(10)-trien-11béta-yl)phénoxy)-N-(2,2,3,3,4,4,4-heptafluorobutyl)-N-méthyl-octanamide] | 23 | – | 0 | – | 0.02 nM
CCCCN(C)C(=O)COCCCCCCOc1ccc([C@H]2C[C@]3(C)[C@@H](O)CC[C@H]3[C@@H]3CCc4cc(O)ccc4[C@H]32)cc1 [Exemple 6] | 29 | 0.007 nM | 3,3 | – | –
CCCCN(C)C(=O)CSCCCCCc1ccc([C@H]2C[C@]3(C)[C@@H](O)CC[C@H]3[C@@H]3CCc4cc(O)ccc4[C@H]32)cc1 [Exemple 9, N-butyl-2-((5-(4-(3,17béta-dihydroxy-estra-1,3,5(10)-trien-11béta-yl)phényl)pentyl)thio)-N-méthyl-acétamide] | 11,7 | 0.009 nM | – | – | –
CCCCN(C)C(=S)CSCCCCCOc1ccc([C@H]2C[C@]3(C)[C@@H](O)CC[C@H]3[C@@H]3CCc4cc(O)ccc4[C@H]32)cc1 [Exemple 18] | 16 | – | – | – | –

Second part, led by results:

Récepteurs Oestrogène Temps d'incubation à 0°C 5H (affinité relative de liaison, ARL) [1] | IC50 [2, 3] | Récepteurs Oestrogène Temps d'incubation à 0°C 2H (affinité relative de liaison, ARL) [1] | Récepteurs Oestrogène Temps d'incubation à 0°C 5H (affinité relative de liaison, ARL) ([1]; listed as exemple 14) | Compound | IC50 [2]
20 | 0.03 nM | – | – | CCCCN(C)C(=S)COCCCCCOc1ccc([C@H]2C[C@]3(C)[C@@H](O)CC[C@H]3[C@@H]3CCc4cc(O)ccc4[C@H]32)cc1 [Exemple 1] | –
47 | 0.015 nM | 2,8 | affinité marquée | C#C[C@]1(O)CC[C@H]2[C@@H]3CCc4cc(O)ccc4[C@H]3[C@@H](CCCCCCCCOCC(=O)N(C)C(C)C)C[C@@]21C [Exemple 14, 2-((8-(3,17béta-dihydroxy19-nor-17alpha-pregna-1,3,5(10)-trien-20-yn-11béta-yl)octyl)oxy)-N-méthyl-N-(1-méthyléthyl)-acétamide] | –
